# Data as given in ChEMBL document CHEMBL1140860, “Synthesis and evaluation of dihydroartemisinin and dihydroartemisitene acetal dimers showing anticancer and antiprotozoal activity” (Bioorg Med Chem, 2009).
# Legend:
# KM12 = assay: Growth inhibition of human KM12 cells after 48 hrs by sulforhodamine B assay; assay type: functional; conditions: KM12, 48 h
# HOP-92 = assay: Growth inhibition of human HOP92 cells after 48 hrs by sulforhodamine B assay; assay type: functional; conditions: HOP-92, 48 h
# [1] = Growth inhibition of human Hs 578T cells after 48 hrs by sulforhodamine B assay; assay type: functional
# [2] = Cytotoxicity against african green monkey Vero cells after 48 hrs by neutral red assay; assay type: cell-based; conditions: chlorocebus sabaeus, read-out: TC50
# SF-539 = assay: Growth inhibition of human SF539 cells after 48 hrs by sulforhodamine B assay; assay type: functional; conditions: SF-539, 48 h
# MOLT-4 = assay: Growth inhibition of human MOLT4 cells after 48 hrs by sulforhodamine B assay; assay type: functional; conditions: MOLT-4, 48 h
# SK-MEL-2 = assay: Growth inhibition of human SK-MEL-2 cells after 48 hrs by sulforhodamine B assay; assay type: functional; conditions: SK-MEL-2, 48 h
# CAKI-1 = assay: Growth inhibition of human Caki1 cells after 48 hrs by sulforhodamine B assay; assay type: functional; conditions: CAKI-1, 48 h
# MDA-MB-231 = assay: Growth inhibition of human MDA-MB-231 cells after 48 hrs by sulforhodamine B assay; assay type: functional; conditions: MDA-MB-231, 48 h
# NCI-H522 = assay: Growth inhibition of human NCI-H522 cells after 48 hrs by sulforhodamine B assay; assay type: functional; conditions: NCI-H522, 48 h
# TK-10 = assay: Growth inhibition of human TK10 cells after 48 hrs by sulforhodamine B assay; assay type: functional; conditions: TK-10, 48 h
# [3] = Selectivity index, ratio of TC50 for african green monkey (Cercopithecus aethiops) Vero cells to IC50 for chloroquine-resistant Plasmodium falciparum W2; assay type: toxicity, cell-based
# Malme-3M = assay: Growth inhibition of human MALME-3M cells after 48 hrs by sulforhodamine B assay; assay type: functional
# U-251 = assay: Growth inhibition of human U251 cells after 48 hrs by sulforhodamine B assay; assay type: functional; conditions: U-251, 48 h
# [4] = Selectivity index, ratio of TC50 for african green monkey (Cercopithecus aethiops) Vero cells to IC50 for chloroquine-sensitive Plasmodium falciparum D6; assay type: toxicity, cell-based
# SF-295 = assay: Growth inhibition of human SF295 cells after 48 hrs by sulforhodamine B assay; assay type: functional; conditions: SF-295, 48 h
# SN12C = assay: Growth inhibition of human SN12C cells after 48 hrs by sulforhodamine B assay; assay type: functional
# MCF7 = assay: Growth inhibition of human MCF7 cells after 48 hrs by sulforhodamine B assay; assay type: functional; conditions: MCF7, 48 h
# OVCAR-8 = assay: Growth inhibition of human OVCAR8 cells after 48 hrs by sulforhodamine B assay; assay type: functional; conditions: OVCAR-8, 48 h
# SNB-19 = assay: Growth inhibition of human SNB19 cells after 48 hrs by sulforhodamine B assay; assay type: functional; conditions: SNB-19, 48 h
# SW-620 = assay: Growth inhibition of human SW620 cells after 48 hrs by sulforhodamine B assay; assay type: functional; conditions: SW-620, 48 h
# OVCAR-4 = assay: Growth inhibition of human OVCAR4 cells after 48 hrs by sulforhodamine B assay; assay type: functional; conditions: OVCAR-4, 48 h
# PC-3 = assay: Growth inhibition of human PC3 cells after 48 hrs by sulforhodamine B assay; assay type: functional; conditions: PC-3, 48 h
# K562 = assay: Growth inhibition of human K562 cells after 48 hrs by sulforhodamine B assay; assay type: functional; conditions: K562, 48 h
# HL-60 = assay: Growth inhibition of human HL-60(TB) cells after 48 hrs by sulforhodamine B assay; assay type: functional; conditions: HL-60, 48 h
# [5] = Growth inhibition of human […] cells after 48 hrs by sulforhodamine B assay; assay type: functional
# UO-31 = assay: Growth inhibition of human UO31 cells after 48 hrs by sulforhodamine B assay; assay type: functional; conditions: UO-31, 48 h
# OVCAR-5 = assay: Growth inhibition of human OVCAR5 cells after 48 hrs by sulforhodamine B assay; assay type: functional; conditions: OVCAR-5, 48 h
# SF-268 = assay: Growth inhibition of human SF268 cells after 48 hrs by sulforhodamine B assay; assay type: functional; conditions: SF-268, 48 h
# RXF 393 = assay: Growth inhibition of human RXF393 cells after 48 hrs by sulforhodamine B assay; assay type: functional; conditions: RXF 393, 48 h
# IGROV-1 = assay: Growth inhibition of human IGROV1 cells after 48 hrs by sulforhodamine B assay; assay type: functional; conditions: IGROV-1, 48 h
# BT-549 = assay: Growth inhibition of human BT549 cells after 48 hrs by sulforhodamine B assay; assay type: functional; conditions: BT-549, 48 h
# UACC-62 = assay: Growth inhibition of human UACC62 cells after 48 hrs by sulforhodamine B assay; assay type: functional; conditions: UACC-62, 48 h
# Plasmodium falciparum [6] = assay: Antimalarial activity after 72 hrs against chloroquine-resistant Plasmodium falciparum W2 infected erythrocytes by LDH assay; assay type: functional, organism-based; conditions: W2, 72 h
# OVCAR-3 = assay: Growth inhibition of human OVCAR-3 cells after 48 hrs by sulforhodamine B assay; assay type: functional; conditions: OVCAR-3, 48 h
# UACC-257 = assay: Growth inhibition of human UACC257 cells after 48 hrs by sulforhodamine B assay; assay type: functional; conditions: UACC-257, 48 h
# HOP-62 = assay: Growth inhibition of human HOP62 cells after 48 hrs by sulforhodamine B assay; assay type: functional; conditions: HOP-62, 48 h
# NCI-H23 = assay: Growth inhibition of human NCI-H23 cells after 48 hrs by sulforhodamine B assay; assay type: functional; conditions: NCI-H23, 48 h
# HT-29 = assay: Growth inhibition of human HT-29 cells after 48 hrs by sulforhodamine B assay; assay type: functional; conditions: HT-29, 48 h
# MDA-N = assay: Growth inhibition of human MDA-N cells after 48 hrs by sulforhodamine B assay; assay type: functional
# HCC 2998 = assay: Growth inhibition of human HCC2998 cells after 48 hrs by sulforhodamine B assay; assay type: functional; conditions: HCC 2998, 48 h
# A498 = assay: Growth inhibition of human A498 cells after 48 hrs by sulforhodamine B assay; assay type: functional; conditions: A498, 48 h
# EKVX = assay: Growth inhibition of human EKVX cells after 48 hrs by sulforhodamine B assay; assay type: functional
# A549 = assay: Growth inhibition of human A549 cells after 48 hrs by sulforhodamine B assay; assay type: functional; conditions: A549, 48 h
# DU-145 = assay: Growth inhibition of human DU145 cells after 48 hrs by sulforhodamine B assay; assay type: functional; conditions: DU-145, 48 h
# NCI/ADR-RES = assay: Growth inhibition of human NCI/ADR-RES cells after 48 hrs by sulforhodamine B assay; assay type: functional
# SK-MEL-28 = assay: Growth inhibition of human SK-MEL-28 cells after 48 hrs by sulforhodamine B assay; assay type: functional; conditions: SK-MEL-28, 48 h
# COLO 205 = assay: Growth inhibition of human COLO205 cells after 48 hrs by sulforhodamine B assay; assay type: functional; conditions: COLO 205, 48 h
# SK-OV-3 = assay: Growth inhibition of human SKOV3 cells after 48 hrs by sulforhodamine B assay; assay type: functional; conditions: SK-OV-3, 48 h
# HCT-15 = assay: Growth inhibition of human HCT15 cells after 48 hrs by sulforhodamine B assay; assay type: functional; conditions: HCT-15, 48 h
# NCI-H322M = assay: Growth inhibition of human NCI-H322M cells after 48 hrs by sulforhodamine B assay; assay type: functional
# MDA-MB-435 = assay: Growth inhibition of human MDA-MB-435 cells after 48 hrs by sulforhodamine B assay; assay type: functional; conditions: MDA-MB-435, 48 h
# NCI-H460 = assay: Growth inhibition of human NCI-H460 cells after 48 hrs by sulforhodamine B assay; assay type: functional; conditions: NCI-H460, 48 h
# SR = assay: Growth inhibition of human SR cells after 48 hrs by sulforhodamine B assay; assay type: functional
# SK-MEL-5 = assay: Growth inhibition of human SK-MEL-5 cells after 48 hrs by sulforhodamine B assay; assay type: functional; conditions: SK-MEL-5, 48 h
# ACHN = assay: Growth inhibition of human ACHN cells after 48 hrs by sulforhodamine B assay; assay type: functional
# T47D = assay: Growth inhibition of human T47D cells after 48 hrs by sulforhodamine B assay; assay type: functional
# HCT-116 = assay: Growth inhibition of human HCT116 cells after 48 hrs by sulforhodamine B assay; assay type: functional; conditions: HCT-116, 48 h
# Plasmodium falciparum [7] = assay: Antimalarial activity after 72 hrs against chloroquine-sensitive Plasmodium falciparum D6 infected in erythrocytes by LDH assay; assay type: functional, organism-based; conditions: D6, 72 h
# CCRF-CEM = assay: Growth inhibition of human CCRF-CEM cells after 48 hrs by sulforhodamine B assay; assay type: functional
# M14 = assay: Growth inhibition of human M14 cells after 48 hrs by sulforhodamine B assay; assay type: functional; conditions: M14, 48 h
# 786-0 = assay: Growth inhibition of human 786-0 cells after 48 hrs by sulforhodamine B assay; assay type: functional; conditions: 786-0, 48 h
# HUVEC [8] = assay: Antiangiogenic activity against HUVEC assessed as inhibition of capillary-like structure formation by NCI antiangiogenesis assay; assay type: functional, cell-based; conditions: Homo sapiens
# HUVEC [9] = assay: Antiangiogenic activity against HUVEC assessed as growth inhibition by NCI antiangiogenesis assay; assay type: functional, cell-based; conditions: Homo sapiens
# HUVEC [10] = assay: Antiangiogenic activity against HUVEC assessed as inhibition of VEGF-induced cell migration by NCI antiangiogenesis assay; assay type: functional, cell-based; conditions: Homo sapiens
smiles,measurement,setting,value
C=C1[C@@H](OCCCO[C@H]2O[C@@H]3O[C@@]4(C)CC[C@H]5[C@H](C)CC[C@@H](C2=C)[C@@]35OO4)O[C@@H]2O[C@@]3(C)CC[C@H]4[C@H](C)CC[C@@H]1[C@@]24OO3,GI50,KM12,94 nM
same,GI50,HOP-92,745 nM
same,GI50,[1],74 nM
same,CC50 at 48 h,[2],> 806000 nM
same,GI50,SF-539,5340 nM
same,GI50,MOLT-4,121 nM
same,GI50,SK-MEL-2,3140 nM
same,GI50,CAKI-1,1770 nM
same,GI50,MDA-MB-231,13100 nM
same,GI50,NCI-H522,401 nM
same,GI50,TK-10,218 nM
same,selectivity ratio,[3],> 159
same,GI50,Malme-3M,7280 nM
same,GI50,U-251,288 nM
same,selectivity ratio,[4],> 43
same,GI50,SF-295,7650 nM
same,GI50,SN12C,7300 nM
same,GI50,MCF7,150 nM
same,GI50,OVCAR-8,372 nM
same,GI50,SNB-19,11100 nM
same,GI50,SW-620,62 nM
same,GI50,OVCAR-4,73 nM
same,GI50,PC-3,63 nM
same,GI50,K562,50 nM
same,GI50,HL-60,98 nM
same,GI50,[5],13 nM
same,GI50,UO-31,181 nM
same,GI50,OVCAR-5,5040 nM
same,GI50,SF-268,6290 nM
same,GI50,RXF 393,6460 nM
same,GI50,IGROV-1,622 nM
same,GI50,BT-549,7520 nM
same,GI50,UACC-62,7200 nM
same,IC50,Plasmodium falciparum [6],5100 nM
same,GI50,OVCAR-3,107 nM
same,GI50,UACC-257,479 nM
same,GI50,HOP-62,6880 nM
same,GI50,NCI-H23,1070 nM
same,GI50,HT-29,43 nM
same,GI50,MDA-N,518 nM
same,GI50,HCC 2998,5980 nM
same,GI50,A498,> 50000 nM
same,GI50,EKVX,476 nM
same,GI50,A549,5330 nM
same,GI50,DU-145,7590 nM
same,GI50,NCI/ADR-RES,533 nM
same,GI50,SK-MEL-28,6070 nM
same,GI50,COLO 205,122 nM
same,GI50,SK-OV-3,10900 nM
same,GI50,HCT-15,12 nM
same,GI50,NCI-H322M,11200 nM
same,GI50,MDA-MB-435,443 nM
same,GI50,NCI-H460,5440 nM
same,GI50,SR,28 nM
same,GI50,SK-MEL-5,496 nM
same,GI50,ACHN,6380 nM
same,GI50,T47D,14 nM
same,GI50,HCT-116,27 nM
same,IC50,Plasmodium falciparum [7],18600 nM
same,GI50,CCRF-CEM,97 nM
same,GI50,M14,205 nM
same,GI50,786-0,346 nM
CO[C@@H]1[C@H](OC(=O)NC(=O)CCl)CC[C@]2(CO2)[C@H]1[C@@]1(C)O[C@@H]1CC=C(C)C [O-CHLOROACETYLCARBAMOYLFUMAGILLOL],IC50,HUVEC [8],1000 nM
same,IC50,HUVEC [9],3160 nM
same,IC50,HUVEC [10],500 nM
CC(=O)O[C@H]1C(=O)[C@@]2(C)[C@H]([C@H](OC(=O)c3ccccc3)[C@]3(O)C[C@H](OC(=O)[C@H](O)[C@@H](NC(=O)c4ccccc4)c4ccccc4)C(C)=C1C3(C)C)[C@]1(OC(C)=O)CO[C@@H]1C[C@@H]2O [PACLITAXEL],IC50,HUVEC [8],50 nM
same,IC50,HUVEC [9],1650 nM
same,IC50,HUVEC [10],100 nM
